Measurements from patent US10029986B2, “Alkynyl pyridine-substituted amide compound and pesticide” (NISSAN CHEMICAL INDUSTRIES, LTD., priority 2014, dated 2018).

Assays:
[1] = system: Erysiphe polygoni (synonym: Erysiphe betae); experiment: Test on the preventive effect against cucumber powdery mildew; assay type: in vivo; conditions: 216 h, 5 ml per pot sprayed, cucumber cotyledon stage, 9 days after inoculation; for pest or weed control at 500 µg/mL: test solution A 500 ppm
Description: Compounds of the present invention were dissolved in a solvent for emulsion (a mixture of Sorpol (registered trademark) 3005XL (manufactured by Toho Chemical Industry Co., Ltd.): N-methylpyrrolidone: Solvesso (registered trademark) 200 (manufactured by ExxonMobil Chemical) in a ratio of 1:5:2) to prepare 20 wt % emulsifiable concentrates. Then, distilled water was added to dilute the emulsifiable concentrates to the prescribed concentration (500 ppm), and the obtained solutions were used in the following the Test Examples 1 to 8. Cucumber (varieties: Sagami Hanjiro) was seeded in 90 cm^3 plastic pot, and at the cotyledon stage, 5 ml per pot of test solution A of the compounds of the present invention was sprayed. After drying in air, the pot was placed in an air-conditioned greenhouse (20° C.), and a suspension of conidium of Erysiphe polygoni (synonym: Erysiphe betae) was sprayed. After the pot were replaced at the same temperature for 9 days, the proportion of the formed lesion in the inoculated leaves were counted to calculate the control value in accordance with the following formula. The test was carried out in duplicate. Control value=[1−(lesion area ratio in treated plot/lesion are a ratio in non-treated plot)]×100

[2] = system: Phaeosphaeria nodorum (Synonym: Septoria nodorum); experiment: Test on the preventive effect against wheat glume blotch; assay type: in vivo; conditions: Parastagonospora nodorum, 144 h, 5 ml per pot, wheat 1.3-leaf stage, 2 days inoculation chamber then 6 days at 20° C.; for pest or weed control at 500 µg/mL: test solution A 500 ppm
Description: Compounds of the present invention were dissolved in a solvent for emulsion (a mixture of Sorpol (registered trademark) 3005XL (manufactured by Toho Chemical Industry Co., Ltd.): N-methylpyrrolidone: Solvesso (registered trademark) 200 (manufactured by ExxonMobil Chemical) in a ratio of 1:5:2) to prepare 20 wt % emulsifiable concentrates. Then, distilled water was added to dilute the emulsifiable concentrates to the prescribed concentration (500 ppm), and the obtained solutions were used in the following the Test Examples 1 to 8. Wheat (varieties: Haruyutaka) was seeded in 90 cm^3 plastic pot, and at 1.3-leaf stage, 5 ml per pot of test solution A of the compounds of the present invention was applied. One day after treatment, a suspension of conidium of Phaeosphaeria nodorum (Synonym: Septoria nodorum) was sprayed to the wheat, and the pot was left in the inoculation chamber at 20° C. under humidity of 100% RH for 2 days. Then, the pot was placed in an air-conditioned greenhouse (20° C.) for 6 days. The proportion of the formed lesion in the inoculated leaves were measured to calculate the control value in accordance with the same formula as in the Test Example 1. The test was carried out in duplicate.

Sclerotinia sclerotiorum = experiment: Test on the preventive effect against cucumber stem rot; assay type: in vivo; conditions: 48 h, 5 ml per pot, agar block inoculation, 2 days at 20° C.; for pest or weed control at 500 µg/mL: test solution A 500 ppm
Description: (§1) Compounds of the present invention were dissolved in a solvent for emulsion (a mixture of Sorpol (registered trademark) 3005XL (manufactured by Toho Chemical Industry Co., Ltd.): N-methylpyrrolidone: Solvesso (registered trademark) 200 (manufactured by ExxonMobil Chemical) in a ratio of 1:5:2) to prepare 20 wt % emulsifiable concentrates. Then, distilled water was added to dilute the emulsifiable concentrates to the prescribed concentration (500 ppm), and the obtained solutions were used in the following the Test Examples 1 to 8. Cucumber (varieties: Sagami Hanjiro) was seeded in 90 cm^3 plastic pot, and at the cotyledon stage, 5 ml per pot of test solution A of the compounds of the present invention was applied. After drying in air, the pot was transferred in a plastic container, and an agar blocks (diameter: 5 mm) containing Sclerotinia sclerotiorum which was preliminarily cultivated in a PDA medium was inoculated to the seed leaves of the cucumber treated with the solution. After the inoculation, the plastic container was covered with a plastic sheet, and placed at 20° C. and humidified for 2 days, thus the proportion of the formed lesion in the inoculated leaves were measured to calculate the control value in accordance with the same formula as in the Test Example 1. The test was carried out in duplicate.

Botrytis cinerea [3] = experiment: Test on the preventive effect against cucumber gray mold (spore inoculation); assay type: in vivo; conditions: 72 h, 5 ml per pot, cucumber cut leaves, conidium inoculation, 3 days at 20° C.; for pest or weed control at 500 µg/mL: test solution A 500 ppm
Description: Compounds of the present invention were dissolved in a solvent for emulsion (a mixture of Sorpol (registered trademark) 3005XL (manufactured by Toho Chemical Industry Co., Ltd.): N-methylpyrrolidone: Solvesso (registered trademark) 200 (manufactured by ExxonMobil Chemical) in a ratio of 1:5:2) to prepare 20 wt % emulsifiable concentrates. Then, distilled water was added to dilute the emulsifiable concentrates to the prescribed concentration (500 ppm), and the obtained solutions were used in the following the Test Examples 1 to 8. Cucumber (varieties: Sagami Hanjiro) was seeded in 90 cm^3 plastic pot, and at the cotyledon stage, 5 ml per pot of test solution A of the compounds of the present invention was applied. After drying in air, the treated leaves were cut and transferred in plastic containers. 30 μl of a mixture of a suspension of conidium of Botrytis cinerea and a dissolved PDA medium in a ratio of 1:1 was dropped on each treated leaf and inoculated. After the inoculation, the plastic containers were placed in 20° C. with humid conditions for 3 days, and the proportion of the formed lesion in the inoculated leaves were counted to calculate the control value in accordance with the same formula as in the Test Example 1. The test was carried out in duplicate.

[4] = system: Southern root-knot nematode (Meloidogyne incoqnita); experiment: Insecticidal test against Southern root-knot nematode (eggs, 96 well plate); assay type: in vivo; conditions: 96 h, test solution B 100 ppm, 10 μl per well, 25° C. dark, 4 days after treatment, read-out: efficacy (unhatched eggs + inactive larvae relative to non-treated)
Description: (§2) Compounds of the present invention were dissolved in dimethyl sulfoxide to prepare 1 wt % solutions. Then, distilled water was added to dilute the solutions to the prescribed concentration (100 ppm), and the obtained solutions were used in the following the Test Examples 9 to 12. 60 μl of a potato dextrose 1% agar medium was added to each well of a 96 well plate, and 30 μl of sterilized water containing eggs of Southern root-knot nematode (Meloidogyne incoqnita) (10 eggs/3 μl) was added to each well. Further, 10 μl per well of test solution B of the compounds of the present invention was added, and the plate was left at rest at 25° C. under dark conditions.

[5] = system: Barber pole worm (Haemonchus contortus); experiment: Insecticidal test against Barber pole worm (eggs, 96 well plate); assay type: in vivo; conditions: 96 h, test solution B 100 ppm, 10 μl per well, 25° C. dark, 4 days after treatment, read-out: efficacy (unhatched eggs and inactive larvae relative to non-treated)
Description: as §2, with “Barber pole worm (Haemonchus contortus)” for “Southern root-knot nematode (Meloidogyne incoqnita)”

Botrytis cinerea [6] = experiment: Test on the preventive effect against cucumber gray mold (mycelium inoculation); assay type: in vivo; conditions: 48 h, 5 ml per pot, cucumber cotyledon, agar block inoculation, 2 days at 20° C.; for pest or weed control at 500 µg/mL: test solution A 500 ppm
Description: as §1, with “applied. On the next day,” for “applied. After drying in air,”, “containing Botrytis cinerea” for “containing Sclerotinia sclerotiorum”, “inoculated on” for “inoculated to”, “the cotyledon” for “the seed leaves”, “sheet, then” for “sheet, and”, “2 days. Thus” for “2 days, thus”

[7] = system: Blumeria graminis f. sp. tritici; experiment: Test on the preventive effect against wheat powdery mildew; assay type: in vivo; conditions: 168 h, 5 ml per pot, wheat 1.3-leaf stage, 7 days after inoculation; for pest or weed control at 500 µg/mL: test solution A 500 ppm
Description: Compounds of the present invention were dissolved in a solvent for emulsion (a mixture of Sorpol (registered trademark) 3005XL (manufactured by Toho Chemical Industry Co., Ltd.): N-methylpyrrolidone: Solvesso (registered trademark) 200 (manufactured by ExxonMobil Chemical) in a ratio of 1:5:2) to prepare 20 wt % emulsifiable concentrates. Then, distilled water was added to dilute the emulsifiable concentrates to the prescribed concentration (500 ppm), and the obtained solutions were used in the following the Test Examples 1 to 8. Wheat (varieties: Norin 61) was seeded in 90 cm^3 plastic pot, and at the 1.3-leaf stage, 5 ml per pot of test solution A of the compounds of the present invention were applied. One day after treatment, the pot was placed in an air-conditioned greenhouse (20° C.), and conidium of Blumeria graminis f. sp. tritici was inoculated to the wheat. 7 days after, the proportion of the formed lesion in the inoculated leaves were measured to calculate the control value in accordance with the same formula as in the Test Example 1. The test was carried out in duplicate.

| melting point | Structure (SMILES) | pest or weed control at 500 µg/mL [1] | pest or weed control at 500 µg/mL [2] | pest or weed control at 500 µg/mL (Sclerotinia sclerotiorum) | pest or weed control at 500 µg/mL (Botrytis cinerea [3]) | further results |
| --- | --- | --- | --- | --- | --- | --- |
|  | O=C(NCC(CC(F)(F)F)c1ncc(C#CC2CC2)cc1Cl)c1ccccc1C(F)(F)F (stereo not shown) [1-010] | ≥ 70% | ≥ 70% | ≥ 70% | ≥ 70% | pest or weed control at 100 µg/mL [4]: ≥ 50%; pest or weed control at 100 µg/mL [5]: ≥ 50% |
|  | CCOC(c1ncc(C#CC2CC2)cc1Cl)C(C)NC(=O)c1ccccc1C(F)(F)F (stereo not shown) [1-026] | ≥ 70% | ≥ 70% | ≥ 70% | ≥ 70% | pest or weed control at 500 µg/mL (Botrytis cinerea [6]): ≥ 70%; pest or weed control at 500 µg/mL [7]: ≥ 70% |
|  | CC(NC(=O)c1ccccc1C(F)(F)F)C(OCC(F)(F)F)c1ncc(C#CC2CC2)cc1Cl (stereo not shown) [1-027] | ≥ 70% | ≥ 70% | ≥ 70% | ≥ 70% | pest or weed control at 500 µg/mL (Botrytis cinerea [6]): ≥ 70%; pest or weed control at 500 µg/mL [7]: ≥ 70% |
|  | CC(NC(=O)c1ccccc1C(F)(F)F)C(SCC(F)(F)F)c1ncc(C#CC2CC2)cc1Cl (stereo not shown) [1-032] | ≥ 70% | ≥ 70% |  |  |  |
| 157 to 158 °C | O=C(NCC(F)(F)c1ncc(C#CC2CC2)cc1Cl)c1ncccc1C(F)(F)F [2-001] |  |  |  |  |  |
|  | CCOC(c1ncc(C#CC2CC2)cc1Cl)C(C)NC(=O)c1cccnc1C(F)F (stereo not shown) [3-022] |  |  |  |  | pest or weed control at 100 ppm (Botrytis cinerea [6]; 100 ppm solution (symbol *)): ≥ 70%; pest or weed control at 100 ppm ([1]; 100 ppm solution (symbol *)): ≥ 70%; pest or weed control at 100 ppm ([7]; 100 ppm solution (symbol *)): ≥ 70%; pest or weed control at 100 ppm ([2]; 100 ppm solution (symbol *)): ≥ 70%; pest or weed control at 100 ppm (Sclerotinia sclerotiorum; 100 ppm solution (symbol *)): ≥ 70%; pest or weed control at 100 ppm (Botrytis cinerea [3]; 100 ppm solution (symbol *)): ≥ 70% |
|  | CC(NC(=O)c1cccnc1Cl)C(SCC(F)(F)F)c1ncc(C#CC2CC2)cc1Cl (stereo not shown) [3-032] | ≥ 70% | ≥ 70% | ≥ 70% | ≥ 70% |  |
|  | CC(NC(=O)c1cccnc1C(F)(F)F)C(SCC(F)(F)F)c1ncc(C#CC2CC2)cc1Cl (stereo not shown) [3-034] | ≥ 70% | ≥ 70% | ≥ 70% | ≥ 70% | pest or weed control at 500 µg/mL (Botrytis cinerea [6]): ≥ 70% |
| 65 to 66 °C | CC(NC(=O)c1cccnc1C(F)(F)F)C(SCC(F)(F)F)c1ncc(C#CC2CC2)cc1Cl (stereo not shown) [3-034a] |  |  |  |  |  |
| 113 to 115 °C | CC(F)(CNC(=O)c1cccnc1C(F)F)c1ncc(C#CC2CC2)cc1Cl (stereo not shown) [3-038, N-[2-[3-chloro-5-(cyclopropylethynyl)pyridin-2-yl]-2-fluoropropyl]-2-(difluoromethyl)nicotinamide] |  |  |  |  |  |
| 110 to 111 °C | Cn1cc(C(=O)NCC(F)(F)c2ncc(C#CCF)cc2Cl)c(C(F)F)n1 [8-005, N-[2-[3-chloro-5-(3-fluoro-1-propynyl)pyridin-2-yl]-2,2-difluoroethyl]-3-difluoromethyl-1-methyl-1H-pyrazole-4-carboxamide] |  |  |  |  |  |
| 43 to 46 °C | Cn1cc(C(=O)NCC(C#N)c2ncc(C#CC3CC3)cc2Cl)c(C(F)F)n1 (stereo not shown) [8-021, N-[2-[3-chchloro-5-(cyclopropylethynyl)pyridin-2-yl]-2-cyanoethyl]-3-difluoromethyl-1-methyl-1H-pyrazole-4-carboxamide] |  |  |  |  |  |
